Assay results published in ChEMBL document CHEMBL4732245, “Synthesis and biological evaluation of novel 4,7-disubstituted coumarins as selective tumor-associated carbonic anhydrase IX and XII inhibitors” (Bioorg Med Chem Lett, 2021).

Experiments:
Carbonic anhydrase 2 = Carbonic anhydrase 2 (Homo sapiens, UniProt P00918); assay: Inhibition of recombinant human carbonic anhydrase 2 pre-incubated for 10 mins by stopped flow CO2 hydrase assay
Carbonic anhydrase 9 [1] = target: T1, Carbonic anhydrase 9 (Homo sapiens, UniProt Q16790); assay: Inhibition of recombinant human carbonic anhydrase 9 preincubated for 10 mins by stopped flow CO2 hydrase assay
Carbonic anhydrase 1 = Carbonic anhydrase 1 (Homo sapiens, UniProt P00915); assay: Inhibition of recombinant human carbonic anhydrase 1 pre-incubated for 10 mins by stopped flow CO2 hydrase assay
Carbonic anhydrase 12 = Carbonic anhydrase 12 (Homo sapiens, UniProt O43570); assay: Inhibition of recombinant human carbonic anhydrase 12 preincubated for 6 hrs at 24 degC by stopped flow CO2 hydrase assay
Carbonic anhydrase 9 [2] = target: T1, Carbonic anhydrase 9; assay: Inhibition of recombinant human carbonic anhydrase 9 preincubated for 6 hrs at 24 degC by stopped flow CO2 hydrase assay

Carbonic anhydrase 1, sequence (P00915 whole entry): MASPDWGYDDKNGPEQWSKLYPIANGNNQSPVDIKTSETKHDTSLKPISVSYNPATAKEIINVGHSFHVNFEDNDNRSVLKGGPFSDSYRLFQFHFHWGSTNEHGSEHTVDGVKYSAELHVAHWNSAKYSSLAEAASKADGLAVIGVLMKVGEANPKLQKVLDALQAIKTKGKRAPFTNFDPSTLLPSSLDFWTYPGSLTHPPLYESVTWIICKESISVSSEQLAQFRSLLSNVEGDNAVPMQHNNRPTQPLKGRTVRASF
Carbonic anhydrase 12, sequence (O43570 whole entry): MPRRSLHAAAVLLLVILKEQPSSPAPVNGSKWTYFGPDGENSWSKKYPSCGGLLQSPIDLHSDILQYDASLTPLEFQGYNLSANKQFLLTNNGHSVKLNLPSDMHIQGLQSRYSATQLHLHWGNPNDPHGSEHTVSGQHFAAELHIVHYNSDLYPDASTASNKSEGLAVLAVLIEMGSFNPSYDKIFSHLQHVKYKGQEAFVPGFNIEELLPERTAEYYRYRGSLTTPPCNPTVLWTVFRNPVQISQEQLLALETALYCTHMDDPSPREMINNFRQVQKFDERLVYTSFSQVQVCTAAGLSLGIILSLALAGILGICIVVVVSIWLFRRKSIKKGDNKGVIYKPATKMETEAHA

SMILES | Ki (Carbonic anhydrase 2) | Ki (Carbonic anhydrase 9 [1]) | Ki (Carbonic anhydrase 1) | Ki (Carbonic anhydrase 12) | Ki (Carbonic anhydrase 9 [2])
COc1ccc(CSc2nnc(COc3ccc4c(C)cc(=O)oc4c3)o2)cc1 | – | 2.34 µM | – | – | –
N#Cc1ccc(Cn2cc(COc3ccc4c(CCl)cc(=O)oc4c3)nn2)cc1 | – | – | – | 0.624 µM | 0.0327 µM
O=c1cc(CN2CCN(Cc3ccccc3)CC2)c2ccc(OCc3ccccc3F)cc2o1 | > 100 µM | 0.91 µM | > 100 µM | – | –
O=c1cc(CN2CCN(Cc3ccccc3)CC2)c2ccc(OCc3ccccc3[N+](=O)[O-])cc2o1 | > 100 µM | 0.93 µM | > 100 µM | – | –
COc1ccc(N2CCN(Cc3cc(=O)oc4cc(OCc5ccccc5)ccc34)CC2)cc1 | > 100 µM | 5.52 µM | > 100 µM | – | –
COc1cccc(COc2ccc3c(CN4CCN(Cc5ccccc5)CC4)cc(=O)oc3c2)c1 | > 100 µM | 4.9 µM | > 100 µM | – | –
COc1ccc(N2CCN(Cc3cc(=O)oc4cc(OCc5ccccc5F)ccc34)CC2)cc1 | > 100 µM | 3.85 µM | > 100 µM | – | –
Cc1cc(C)cc(COc2ccc3c(CN4CCN(Cc5ccccc5)CC4)cc(=O)oc3c2)c1 | > 100 µM | 0.78 µM | > 100 µM | – | –
O=c1cc(CN2CCN(Cc3ccccc3)CC2)c2ccc(OCc3ccc([N+](=O)[O-])cc3)cc2o1 | > 100 µM | 3.16 µM | > 100 µM | – | –

Results, then the molecule that gave them:

Ki (Carbonic anhydrase 2) | Ki (Carbonic anhydrase 9 [1]) | Ki (Carbonic anhydrase 1) | Ki (Carbonic anhydrase 12) | Ki (Carbonic anhydrase 9 [2]) | SMILES
> 100 µM | 0.85 µM | > 100 µM | – | – | O=c1cc(CN2CCN(Cc3ccccc3)CC2)c2ccc(OCc3cccc(Br)c3)cc2o1
> 100 µM | 0.89 µM | > 100 µM | – | – | COc1ccc(N2CCN(Cc3cc(=O)oc4cc(OCc5ccc(Br)cc5)ccc34)CC2)cc1
> 100 µM | 3.47 µM | > 100 µM | – | – | COc1ccc(N2CCN(Cc3cc(=O)oc4cc(OCc5cccc(Br)c5)ccc34)CC2)cc1
> 100 µM | 5.39 µM | > 100 µM | – | – | COc1ccc(N2CCN(Cc3cc(=O)oc4cc(OCc5ccccc5[N+](=O)[O-])ccc34)CC2)cc1
> 100 µM | 4.9 µM | > 100 µM | – | – | O=c1cc(CN2CCN(Cc3ccccc3)CC2)c2ccc(OCc3ccccc3)cc2o1
> 100 µM | 2.55 µM | > 100 µM | – | – | COc1ccc(N2CCN(Cc3cc(=O)oc4cc(OCc5cccc(OC)c5)ccc34)CC2)cc1
> 100 µM | 4.55 µM | > 100 µM | – | – | COc1ccc(N2CCN(Cc3cc(=O)oc4cc(OCc5cc(C)cc(C)c5)ccc34)CC2)cc1
> 100 µM | – | > 100 µM | – | – | O=c1cc(CN2CCN(Cc3ccccc3)CC2)c2ccc(OCc3ccc(Br)cc3)cc2o1
> 100 µM | 7.29 µM | > 100 µM | – | – | COc1ccc(N2CCN(Cc3cc(=O)oc4cc(OCc5cccc(Cl)c5)ccc34)CC2)cc1
> 100 µM | 2.66 µM | > 100 µM | – | – | COc1ccc(N2CCN(Cc3cc(=O)oc4cc(OCc5ccc([N+](=O)[O-])cc5)ccc34)CC2)cc1
> 100 µM | 4.6 µM | > 100 µM | – | – | O=c1cc(CN2CCN(Cc3ccccc3)CC2)c2ccc(OCc3cccc(Cl)c3)cc2o1
> 100 µM | 4.43 µM | > 100 µM | – | – | O=c1cc(CN2CCN(Cc3ccccc3)CC2)c2ccc(OCc3cc(F)ccc3F)cc2o1
